Results on one compound are retold here after patent publication US20090191137A1, “Method and Material for Controlling or Eliminating Potentially Harmful, Contaminating or Nuisance Micro-Organisms or Cells” (priority 2007, published 2009).

In the assay the test system is algae (Chlamydomonas). Put plainly: NM7O added to a suspension of algae (algaecide test). Format: cell-based. The note with it: algae 1×10^6 cells/ml in tubes.

Description: The color change can serve as a valuable indicator of activity, as untreated NM7O remains suspended and violet colored.
This may be due to the requirement of direct contact between the product and the algae.

Regarding `O=S(=O)([O-])[O-].[Cu+2]` [copper sulfate], the “effect on algal suspension (appearance of the solution)” value is recorded as “the solution turned blue” and the “microscopic evaluation of the sediment (appearance of treated cells)” value is given as “appeared intact with full cellular contents”.
